In US10770169B2, “Method of providing a treatment to a subject based on a dynamic pathway map” (THE REGENTS OF THE UNIVERSITY OF CALIFORNIA, priority 2010, dated 2020):

Test system: panel of 55 breast cancer cell lines
Assay: Cell growth inhibition assay (Cell Titer Glo, 72 h, 9 doses; GI50, TGI, LC50)
Assay type: cell-based, human
Settings: value is the negative log10 of mol/L
[1] = AU565 cell line, censored GI50 values
[2] = BT474 cell line, censored GI50 values
[3] = HCC1187 cell line, censored GI50 values
[4] = HCC1419 cell line, censored GI50 values
[5] = HCC1428 cell line, censored GI50 values
[6] = HCC1500 cell line, censored GI50 values
[7] = HCC1806 cell line, censored GI50 values
[8] = HCC1954 cell line, censored GI50 values
[9] = HCC2185 cell line, censored GI50 values
[10] = SKBR3 cell line, censored GI50 values
[11] = SUM149PT cell line, censored GI50 values
[12] = SUM1315MO2 cell line, censored GI50 values
[13] = UACC812 cell line, censored GI50 values
[14] = ZR75B cell line, censored GI50 values
[15] = ZR751 cell line, censored GI50 values

O=C1NC(=O)/C(=C/c2ccc(-c3ccc(F)cc3O)o2)S1 [AS-252424]
GI50 [1]: 4.87 | GI50 (BT20 cell line, censored GI50 values): 4.65 | GI50 [2]: 5.36 | GI50 (BT483 cell line, censored GI50 values): 5.37 | GI50 [3]: 5.78 | GI50 [4]: 4.69 | GI50 [5]: 5.31 | GI50 [6]: 5.24 | GI50 [7]: 5.15 | GI50 [8]: 5.46 | GI50 [9]: 4.46 | GI50 (MCF7 cell line, censored GI50 values): 4.80 | GI50 (MDAMB175VII cell line, censored GI50 values): 4.61 | GI50 (MDAMB361 cell line, censored GI50 values): 4.71 | GI50 (MDAMB436 cell line, censored GI50 values): 4.74 | GI50 (MDAMB453 cell line, censored GI50 values): 4.69 | GI50 [10]: 4.40 | GI50 (SUM52PE cell line, censored GI50 values): 4.44 | GI50 [11]: 4.66 | GI50 (SUM185PE cell line, censored GI50 values): 5.27 | GI50 (SUM225CWN cell line, censored GI50 values): 5.02 | GI50 [12]: 4.75 | GI50 (T47D cell line, censored GI50 values): 5.25 | GI50 [13]: 4.88 | GI50 [14]: 4.65 | GI50 [15]: 5.20 | GI50 (cell line AU565): 4.87 | GI50 (cell line BT20): 4.65 | GI50 (cell line BT474): 5.36 | GI50 (cell line BT483): 5.37 | GI50 (cell line CAMA1): 4.18 | GI50 (cell line HCC70): 4.67 | GI50 (cell line HCC1187): 5.78 | GI50 (cell line HCC1419): 4.69 | GI50 (cell line HCC1428): 5.31 | GI50 (cell line HCC1500): 5.24 | GI50 (cell line HCC1806): 5.15 | GI50 (cell line HCC1937): 4.18 | GI50 (cell line HCC1954): 5.46 | GI50 (cell line HCC2185): 4.46 | GI50 (cell line HCC3153): 4.48 | GI50 (cell line LY2): 4.51 | GI50 (cell line MCF7): 4.80 | GI50 (cell line MDAMB134V): 4.30 | GI50 (cell line MDAMB175V): 4.61 | GI50 (cell line MDAMB361): 4.71 | GI50 (cell line MDAMB436): 4.74 | GI50 (cell line MDAMB453): 4.69 | GI50 (cell line MDAMB468): 4.18 | GI50 (cell line SKBR3): 4.40 | GI50 (cell line SUM52PE): 4.44 | GI50 (cell line SUM149PT): 4.66 | GI50 (cell line SUM185PE): 5.27 | GI50 (cell line SUM225CWN): 5.02 | GI50 (cell line SUM1315MO): 4.75 | GI50 (cell line T47D): 5.25 | GI50 (cell line UACC812): 4.88 | GI50 (cell line ZR75B): 4.65 | GI50 (cell line ZR751): 5.20

ICRF-193
GI50 [1]: 6.14 | GI50 (HCC38 cell line, censored GI50 values): 6.54 | GI50 [3]: 6.05 | GI50 [6]: 4.66 | GI50 [8]: 4.82 | GI50 [9]: 5.69 | GI50 [10]: 5.22 | GI50 [11]: 4.75 | GI50 (SUM159PT cell line, censored GI50 values): 6.38 | GI50 [12]: 6.21 | GI50 [13]: 4.66 | GI50 [14]: 6.60 | GI50 [15]: 6.07 | GI50 (cell line AU565): 6.14 | GI50 (cell line BT20): 4.38 | GI50 (cell line BT474): 4.30 | GI50 (cell line CAMA1): 4.30 | GI50 (cell line HCC38): 6.54 | GI50 (cell line HCC1143): 4.30 | GI50 (cell line HCC1187): 6.05 | GI50 (cell line HCC1428): 4.38 | GI50 (cell line HCC1500): 4.66 | GI50 (cell line HCC1806): 4.30 | GI50 (cell line HCC1937): 4.30 | GI50 (cell line HCC1954): 4.82 | GI50 (cell line HCC2185): 5.69 | GI50 (cell line MDAMB436): 4.30 | GI50 (cell line MDAMB453): 4.45 | GI50 (cell line SKBR3): 5.22 | GI50 (cell line SUM149PT): 4.75 | GI50 (cell line SUM159PT): 6.38 | GI50 (cell line SUM1315MO): 6.21 | GI50 (cell line UACC812): 4.66 | GI50 (cell line ZR75B): 6.60 | GI50 (cell line ZR751): 6.07

NS(=O)(=O)c1ccc(Nc2nc(OCC3CCCCC3)c3[nH]cnc3n2)cc1 [NU6102]
GI50 [1]: 4.64 | GI50 [2]: 4.56 | GI50 (CAMA1 cell line, censored GI50 values): 4.91 | GI50 (HCC1143 cell line, censored GI50 values): 4.87 | GI50 [3]: 5.11 | GI50 (HCC1395 cell line, censored GI50 values): 5.24 | GI50 [4]: 4.54 | GI50 [5]: 4.87 | GI50 [6]: 4.78 | GI50 [7]: 4.64 | GI50 (cell line AU565): 4.64 | GI50 (cell line BT20): 4.23 | GI50 (cell line BT474): 4.56 | GI50 (cell line BT483): 4.18 | GI50 (cell line CAMA1): 4.91 | GI50 (cell line HCC38): 5.03 | GI50 (cell line HCC70): 4.69 | GI50 (cell line HCC1143): 4.87 | GI50 (cell line HCC1187): 5.11 | GI50 (cell line HCC1395): 5.24 | GI50 (cell line HCC1419): 4.54 | GI50 (cell line HCC1428): 4.87 | GI50 (cell line HCC1500): 4.78 | GI50 (cell line HCC1806): 4.64 | GI50 (cell line HCC1937): 4.27 | GI50 (cell line HCC1954): 4.34 | GI50 (cell line HCC2185): 4.85 | GI50 (cell line HCC3153): 4.81 | GI50 (cell line LY2): 4.32 | GI50 (cell line MCF7): 4.39 | GI50 (cell line MDAMB134V): 4.34 | GI50 (cell line MDAMB175V): 4.26 | GI50 (cell line MDAMB361): 4.77 | GI50 (cell line MDAMB415): 4.46 | GI50 (cell line MDAMB436): 4.28 | GI50 (cell line MDAMB453): 4.91 | GI50 (cell line MDAMB468): 4.85 | GI50 (cell line SKBR3): 4.51 | GI50 (cell line SUM52PE): 5.27 | GI50 (cell line SUM149PT): 5.08 | GI50 (cell line SUM159PT): 4.90 | GI50 (cell line SUM185PE): 5.53 | GI50 (cell line SUM225CWN): 4.30 | GI50 (cell line SUM1315MO): 5.40 | GI50 (cell line T47D): 4.82 | GI50 (cell line UACC812): 4.42 | GI50 (cell line ZR75B): 4.85 | GI50 (cell line ZR751): 4.76
